# Where two headings read alike, the source gives them in different places.
# Columns and labels:
# Type in all cases: cell-based
# [1] = test system: EpiAirway™ human-derived tracheal/bronchial epithelial cells; assay: Transepithelial electrical resistance (TER) across EpiAirway epithelial cell layer
# [2] = test system: EpiAirway™ human-derived tracheal/bronchial epithelial cells; assay: FITC-dextran / sample permeation across epithelial cell monolayer
# Protocol: A FITC labeled dextran with a molecular weight 3000 (FD3) was used to assess the efficacy of individual TJMP on epithelial cell monolayer permeation. The tissue insert plates were transferred to a 96-well receiver plate containing 200 μl of DPBS++ as basal media. The apical surface of each tissue culture insert was incubated with a 20 μl sample of a single test formulation (refer to Table 24 of Example 25 for details of test formulations) for one hour at 37° C. in the dark on a shaker (˜100 rpm). Following the 1-hour incubation period, underlying basal media samples were taken from each tissue culture insert and temporarily stored in the dark at room temperature until FD3 levels were quantified by fluorescence spectroscopy. For FD3 measurements, a 150 μl of basal media sample was transferred to a black, clear bottom 96-well plate. Fluorescence emission at 528/20 following excitation at 485/20 were measured using a FL×800 fluorescence plate reader from Biotek Instruments.
# Each tissue insert will be placed in an individual well containing 1 ml of MatTek basal media. On the apical surface of the inserts, 25 μl of test formulation will be applied according to study design, and the samples will be placed on a shaker (˜100 rpm) for 1.5 h at 37° C. FITC-labeled dextran solution is added to inserts apically and a fluorescence measurement is made from the basolateral media after the incubation period. The concentration of FITC-dextran is expressed as a percent of the starting material applied to the cells. A FITC labeled dextran with a molecular weight 4000 (MW4000) was used to assess cargo size limitations on individual TJMP permeation. Of note, various size FITC-labeled dextrans are available to perform size limitation studies.
# Fluorescein isothiocyanate (FITC) labeled Dextrin (MW 3,000) was added to the treatment mixture at 0.1-1 mg/ml. The treatment mixture was added to the side of the apical wall, and the plates were incubated at 37° C. in an orbital shaker (New Brunswick Scientific, Edison, N.J.) for the designated time at 100 rpm. At the end of incubation, triplicates of 200 ul of the basal medium were transferred to a dark-wall fluorescent reading plate. Fluorescent intensity at wavelength 470 nm was measured by a microplate fluorescence reader FLx800 (BIO-TEK INSTRUMENTS, INC, Winooski, Vt.). Serial dilutions of standard were used to obtain a standard curve and calculate the concentration. Permeability was measured in two ways, as the ratio of donor mass (the apical chamber) or as the ratio of acceptor mass (the basal chamber), expressed in percentage.
# [3] = test system: EpiAirway™ human-derived tracheal/bronchial epithelial cells; assay: Cytotoxicity (LDH assay)
# Protocol: The amount of cell death was assayed by measuring the loss of lactate dehydrogenase (LDH) from the cells using a CytoTox 96 Cytoxicity Assay Kit (Promega Corp., Madison, Wis.). Fifty microliters of sample was loaded into a 96-well assay plates. Fresh, cell-free culture medium was used as a blank. 50 μl of substrate solution was added to each well and the plates incubated for 30 minutes at room temperature in the dark. Following incubation, 50 μl of stop solution was added to each well and the plates read on an optical density plate reader at 490 nm.
# The amount of cell death will be assayed by measuring the loss of lactate dehydrogenase (LDH) from the cells using a CytoTox 96 Cytotoxicity Assay Kit (Promega Corp., Madison, Wis.). Fifty microliters of sample will be loaded into a 96-well assay plates. Fresh, cell-free culture medium will be used as a blank. Fifty microliters of substrate solution will be added to each well and the plates incubated for 30 minutes at room temperature in the dark. Following incubation, 50 μl of stop solution will be added to each well and the plates read on an optical density plate reader at 490 nm. The measurement of LDH release into the basolateral media indicates relative cytotoxicity of the samples. One hundred percent lysis of control inserts with 0.3% Octylphenolpoly(ethyleneglycolether)×(TritonX-100) allows LDH values to be expressed as percentage of total lysis.
# In some embodiments, The amount of cell death was assayed by measuring the release of lactate dehydrogenase (LDH) from the cells into the apical medium using a CytoTox 96 Cytotoxicity Assay Kit (Promega Corp., Madison, Wis.). One percent Octylphenolpoly (ethyleneglycolether)×(Triton X-100™) diluted in phosphate buffered saline (PBS) causes 100% lysis in cultured cells and served herein as a positive control for the LDH assay. Following the one hour incubation period with a test formulation (refer to Table 24 of Example 25 for details of test formulations), the total liquid volume of each insert was brought to a final volume of 200 μl with culture medium. The apical medium was then mixed by pipetting four times with a multichannel pipette set to a 100 μl volume. After mixing, a 100 μl sample from the apical side of each insert was transferred to a new 96-well plate. The apical media samples were sealed with a plate sealer and stored at room temperature for same day analysis or stored overnight at 4° C. for analysis the next day. To measure LDH levels, 5 μl of the 100 μl apical media sample was diluted in 45 μl DPBS in a new 96-well plate. Fresh, cell-free culture medium will be used as a blank. Fifty microliters of substrate solution was added to each well and incubated for 30 minutes at room temperature away from direct light. Following the 30 minute incubation, 50 μl of stop solution was added to each well. Optical density (OD) was measured at 490 nm with a uQuant absorbance plate reader from Biotek Instruments. The measurement of LDH release into the apical media indicates relative cytotoxicity of the samples. Percent cytotoxicity for each test formulation was calculated by subtracting the measured absorbance of the PBS control (basal level of LDH release) from the measured absorbance of the individual test formulation and then dividing that value by the measured absorbance for the 1% Triton X-100™ positive control, multiplied by 100.
# An LDH assay was used to assess the cytotoxicity of the treatments. The LDH level was determined by CytoTox96 Non-Radioactive Cytotoxic Assay (Promega, Madison, Wis.) following the manufacturer's protocol. For basal-lateral LDH levels, triplicates of 50 ul of the basal medium were used to determine the LDH level. For apical LDH level, 150 ul of the diluted apical sample was removed by adding 150 ul of Epi-CM to the apical chamber, the medium was mixed by pipeting up and down, and 150 ul medium was removed and diluted 2× (for a final 8-fold dilution) for assay in triplicates of 50 ul.
# [4] = 1000 μM, additional assay (in parenthesis)
# [5] = 15 minute treatment at the peptide's optimal concentration
# [6] = 60 minute treatment at the peptide's optimal concentration
compound,measurement,setting,value
CNGRCGGKKKLKLLLKLL [PN679],% T0 TER,"[1]; 25 μM, 1 h, pH 7",70%
same,% T0 TER,"[1]; 100 μM, 1 h, pH 7",7%
same,% T0 TER,"[1]; 250 μM, 1 h, pH 7",2%
same,% T0 TER,"[1]; 500 μM, 1 h, pH 7",−2%
same,% T0 TER,"[1]; 1000 μM, 1 h, pH 7",−2% (−2%)
same,% T0 TER,[1]; [4],−2% (−2%)
same,% FD3 Permeation,"[2]; 25 μM, 1 h, FITC dextran MW 3000",0%
same,% FD3 Permeation,"[2]; 100 μM, 1 h, FITC dextran MW 3000",7%
same,% FD3 Permeation,"[2]; 250 μM, 1 h, FITC dextran MW 3000",8%
same,% FD3 Permeation,"[2]; 500 μM, 1 h, FITC dextran MW 3000",10%
same,% FD3 Permeation,"[2]; 1000 μM, 1 h, FITC dextran MW 3000",10% (10%)
same,% FD3 Permeation,[2]; [4],10% (10%)
same,optimal dose,"[2]; based on TER reduction, sample permeation and LDH release",100 µM
CC[C@H](C)[C@H](NC(=O)[C@H](CCCCN)NC(=O)[C@@H](NC(=O)[C@H](CCC(N)=O)NC(=O)[C@@H](N)CCCNC(=N)N)[C@@H](C)CC)C(=O)N[C@@H](Cc1c[nH]c2ccccc12)C(=O)N[C@@H](Cc1ccccc1)C(=O)N[C@@H](CCC(N)=O)C(=O)N[C@@H](CC(N)=O)C(=O)N[C@@H](CCCNC(=N)N)C(=O)N[C@@H](CCCNC(=N)N)C(=O)N[C@@H](CCSC)C(=O)N[C@@H](CCCCN)C(=O)N[C@@H](Cc1c[nH]c2ccccc12)C(=O)N[C@@H](CCCCN)C(=O)N[C@@H](CCCCN)C(N)=O [PN58],TER reduction,[1]; 250 μM peptide,−6%
same,TER reduction,[1]; 500 μM peptide,64%
same,TER reduction,[1]; 1000 μM peptide,88%
same,LDH15,[3]; [5],0.0007
same,LDH60,[3]; [6],0.02
H-AAVALLPAVLLALLAPRKKRRQRRRPPQ-NH2 [PN27],TER reduction,[1]; 125 μM peptide,81%
same,TER reduction,[1]; 250 μM peptide,91%
same,TER reduction,[1]; 500 μM peptide,94%
same,LDH15,[3]; [5],0.0056
same,LDH60,[3]; [6],0.035
H-KLWSAWPSLWSSLWKP-NH2 [PN228],TER reduction,[1]; 100 μM peptide,9%
same,TER reduction,[1]; 500 μM peptide,82%
same,LDH15,[3],0.0063
same,LDH60,[3],0.046
H-KLAWKLAWKALKAAWKLA-NH2 [PN0428],Relative TER Decrease,[1]; relative to PN159 = 1.0,0.7
Maleimide-GLGSLLKKAGKLKLKQPKSKRKV-amide [PN283],TER reduction,[1]; 100 μM peptide,39%
same,TER reduction,[1]; 500 μM peptide,86%
same,TER reduction,[1]; 1000 μM peptide,92%
same,percent permeation,[2]; 100 μM peptide,0.7%
same,percent permeation,[2]; 500 μM peptide,3.9%
same,percent permeation,[2]; 1000 μM peptide,5.2%
same,% Perm 15,[2]; [5],1.06%
same,% Perm 60,[2]; [6],4.99%
same,permeation of FITC-dextran MW4000,"[2]; 60 minutes of incubation, peptide at optimal concentration",approximately 5%
same,Optimal Concentration,[2]; greatest TER reduction with highest permeability and no significant cytotoxicity,1000 µM
same,LDH15,[3]; [5],0.0007
same,LDH60,[3]; [6],0.032
"Octylphenolpoly (ethyleneglycolether)×(Triton X-100™) [Triton X-100 ™, reference compound]",% Triton-X LDH Release,"[3]; 1% Triton X-100, positive control",100%

# Reference: US20090220435A1, “TIGHT JUNCTION MODULATING PEPTIDE COMPONENTS FOR ENHANCING MUCOSAL DELIVERY OF THERAPEUTIC AGENTS” (priority 2005, published 2009)
